Test results published in US20220249622A1, “METHOD FOR PROTECTING BRAIN NEURON CELLS WITH BIOACTIVE COMPOUND” (TCI CO., LTD., priority 2021, published 2022).

Experiments:
[1] = system: mouse brain neuroblastoma cells Nero2a; assay: Activity of mitochondria of neuron cells (JC-1 mitochondrial membrane potential assay, flow cytometer); type: cell-based; conditions: 24 hours, control group = 100%
Description: 1. Cell strain: mouse brain neuroblastoma. cells Nero2a, from the American Type
Culture Collection (ATCC®, Cat. CCL-131), hereinafter referred to as Nero2a cells.
2. Culture medium: Dulbecco's modified Eagle's medium (DMEM, purchased from Gibco, Cat. 11965-092) containing 10 vol % of Fetal Bovine Serum (FBS, purchased from Gibco, 10437-028) and 3.7 g/L of sodium bicarbonate (purchased from Sigma, S5761-500G).
4. Mitochondrial n embranepotential assay kit (MitoScreen (.IC-1) kit purchased from BD, model 551302): with ,IC-1 dye (lyophilized) and 10× assay buffer. Before use, the assay buffer was diluted 10-fold with 1 PBS solution to form 1× assay buffer, 130 μl of dimethyl sulfoxide (DMSO) was added into the JC-1 dye (lyophilized) to form a JC-1 stock solution. Then, the stock solution was diluted to 1/100 with the 1 × assay buffer to form a JC-1 working reagent
6. Flow cytometer: purchased from BD Pharmingen, model BDTM Accuri C6 Plus.
The Nero2a cells were seeded into a 6-well culture plate at a density of […] cells per well, and 2 ml., of the above-mentioned fresh culture medium was added to each well and incubated for 24 hours at 37° C. and 5% CO2.
Remove the culture medium from each well. The Nero2a cells were divided into a control group and experimental groups 1-5. Control group was added with the fresh culture medium. Experimental group I was added with fresh culture medium containing 50 μg/mL synthesized peptide of SEQ .117 NO :1; experimental group 2 was added with fresh culture medium containing 50 μg/mL synthesized peptide of SEQ ID NO:2; experimental group 3 was added with fresh culture medium containing 50 μg/mL synthesized peptide of SEQ ID NO 3, experimental group 4 was added with fresh culture medium containing 25 μg/mL synthesized peptide of SEQ ID NO:4; and experimental group 5 was added with fresh culture medium containing 1 mg/mL of catfish skin collagen peptide powder from Example. 1. Each group was triplicated and incubated at 37C. for 24 hours.
In each group, the culture medium was removed, and then the cells were washed twice with the PBS solution. Then, 200 μL of trypsin solution was added to react with the cells for 3 min, and 6 mL of fresh culture medium was added to stop the reaction. […]
The cell solution of the control group and the cell solution of each experimental group were analyzed for the activity of mitochondria by using a flow cytometer.
Standard deviations were calculated by an STDEV formula of Excel software, and whether statistically significant differences existed or not was analyzed by one-tail student t-test in the Excel software. […] The p value of each group was calculated compared to the control group. […]

[2] = system: human brain neurons SH-SYSY; assay: Inhibitory effect on brain neuron damage caused by MPP+ (MTT cell viability); type: cell-based; conditions: 5 μM MPP+ alone (control group), 48 hours
Experimental: The cells, culture medium, MTT apoptosis detection solution, ELISA reader, and statistical method of cell viability used in this example are the same as in Example 5, and details are not described herein again.
The SII-SYSY cells were seeded at a density of 5×10^3 cells per well into a 96-well culture plate and incubated for 24 hours at 37° C. and 5% CO2.
The culture medium was removed from each well. The SH-SYSY cells were divided into a blank group, a control group, and an experimental group. The fresh culture medium was added into the wells of the blank group. The fresh culture medium containing 5 μM MPP+ was added into the wells of the control group. The fresh culture medium containing 5 μM MPP+ and 1 mg/mL catfish skin collagen peptide powder from Example 1 was added into the wells of the experimental group. Each group was triplicated and incubated at 37° C. for 48 hours.
Then, 15 μL of 5 MTT apoptosis detection solution was added to each group for 3-4 h at 37° C. and 5% CO2.
The culture medium in each well was removed. In each group, 50 μL of DMSO was added to dissolve the purple crystals of formazan. Finally, an absorbance (at 570 nm) of each group was measured by an ELISA reader to analyze the cell viability of each group.
Taking the value of the blank group as 100% of cell viability, each value of the control group and the experimental group was converted into cell viability (%).

| Compound | relative accumulation of JC-1 ([1]; 50 μg/mL synthesized peptide) | other results |
| --- | --- | --- |
| GRGGFGGRGGFG (listed as Pangasius bocourti) [SEQ ID NO: 3, synthesized peptide, peptide fragment of nucleolin from catfish skin] | 120.95% |  |
| TAELEPLTDG (listed as Pangasius bocourti) [SEQ ID NO: 2, synthesized peptide, peptide fragment of NAD synthetase 1 from catfish skin] | 150,17% |  |
| C[n+]1ccc(-c2ccccc2)cc1 [MPP+, 1-methyl-4-phenylpyridin-1-ium] |  | cell viability ([2]; SH-SYSY cells, blank group = 100%): 86%; cell viability reduced by ([2]; vs blank group): 14% |
| NGTGPQNH (listed as Pangasius bocourti) [SEQ ID NO: 1] | 146.90% |  |
| LVMGFHPQYL (listed as Pangasius bocourti) [SEQ ID NO: 4, synthesized peptide, peptide fragment of sestrin 1 from catfish skin] |  | relative accumulation of JC-1 ([1]; 25 μg/mL synthesized peptide): 115.74% |
